Data as given in patent publication EP1489910B1 (priority 2002, dated 2003).
Several values for one entry are separate records, joined by “and”; a condition that tells them apart may be missing. Equal entries are not always repeated. Where two headings read alike, the source gives them in different places.

Tests used:
measles = details: in-vitro; cited from earlier work
herpes viruses = details: in-vitro; cited from earlier work
HSV = details: legend not given; cited from earlier work
HSVlesions = HSVlesions in humans; cited from earlier work
CMV = details: plants infected with CMV; one range printed for CMV and ToMV; cited from earlier work
ToMV = details: plants infected with ToMV; one range printed for CMV and ToMV; cited from earlier work
cucumber mosaic virus = assay type: in vivo, Cucumber mosaic virus (CMV)
influenza A2 (Japan 305) = system: influenza A2 (Japan 305); parameters: dose or concentration left out as unconfirmed; details: in-vitro; 1/4 of its estimated maximum tolerated concentration; cited from earlier work
[1] = system: pseudorabies virus (Suid herpes virus 1, SHV-1); details: cited from earlier work
VSV = details: legend not given; cited from earlier work
Vaccinia = details: legend not given; cited from earlier work
adenovirus = details: no symbol given; cited from earlier work
HSV Keratitis = HSV Keratitis in rabbits; cited from earlier work
PVX = details: susceptible virus PVX; cited from earlier work
CLSV = details: susceptible virus CLSV; cited from earlier work
[2] = 1000-ppm 2-Thiouracil as control

Compound: C[C@H]1O[C@@H](O[C@H]2CC[C@@]3(C)[C@@H](CC[C@]4(C)[C@@H]3C=C[C@]35OC[C@@]6(CCC(C)(C)C[C@H]63)[C@H](O)C[C@]54C)[C@]2(C)CO)[C@H](O)[C@@H](O[C@@H]2O[C@H](CO)[C@@H](O)[C@H](O)[C@H]2O)[C@H]1O [Saikosaponin-d]
- concentration that causes inactivation (measles): greater than 5 µM
- concentration that causes inactivation (herpes viruses): greater than 5 µM

Compound: CC1(C)[C@@H](O)CC[C@]2(C)[C@H]3C(=O)C=C4[C@@H]5C[C@@](C)(C(=O)O)CC[C@]5(C)CC[C@@]4(C)[C@]3(C)CC[C@@H]12 [Glycyrrhetinic acid]
- Virucidal (HSV): +HSV only

Compound: Carbenoxolone/ cicloxolone
- Virucidal (HSV): +HSV
- Active in vivo (HSVlesions): HSVlesions in humans

Compound: O=C1NCCCN1CN1CCOCC1 [DD13, 1-Morpholino methyl-tetrahydro-2-(1H)-pyrimidinone]
- protective effect in % plants infected (CMV): 97-100%
- protective effect in % plants infected (ToMV): 97-100%

Compound: NC12CC3CC(CC(C3)C1)C2 [Amantadine]
- Average No of lesions Control (cucumber mosaic virus; 1000-ppm Amantadine as control): 4.5 and 4.0 and 4.8
- No of lesions on Control (cucumber mosaic virus; 1000-ppm Amantadine as control): 45 and 40 and 48
- inhibition of influenza A2 (Japan 305) (influenza A2 (Japan 305)): 98%

Compound: crossasteroside B
- inhibit plaque formation [1]: 43%

Compound: O=c1cc[nH]c(=S)[nH]1 [2-Thiouracil]
- Average No of lesions Control (cucumber mosaic virus; [2]): 1.9 and 1.7 and 1.1
- No of lesions on Control (cucumber mosaic virus; [2]): 19 and 17 and 11

Compound: crossasteroside D
- inhibit plaque formation [1]: 27%

Compound: Hydroxy-protoprimulagenin
- Virucidal (HSV): +HSV only
- Other viruses: VSV (VSV): VSV Vaccinia adenovirus
- Other viruses: Vaccinia (Vaccinia): VSV Vaccinia adenovirus
- Other viruses: adenovirus (adenovirus): VSV Vaccinia adenovirus
- Active in vivo (HSV Keratitis): HSV Keratitis in rabbits

Compound: CC1(C)[C@@H](O[C@H]2O[C@H](C(=O)O)[C@@H](O)[C@H](O)[C@H]2O[C@@H]2O[C@H](C(=O)O)[C@@H](O)[C@H](O)[C@H]2O)CC[C@]2(C)[C@H]3C(=O)C=C4[C@@H]5C[C@@](C)(C(=O)O)CC[C@]5(C)CC[C@@]4(C)[C@]3(C)CC[C@@H]12 [Glycyrrhizin]
- Virucidal (HSV): +slight effect

Compound: NC(=O)c1ncn([C@@H]2O[C@H](CO)[C@@H](O)[C@H]2O)n1 [Ribavirin]
- concentration needed to inhibit local lesion development and to prevent infection (PVX): Approximately 1000 ppm
- concentration needed to inhibit local lesion development and to prevent infection (CLSV): Approximately 1000 ppm
